Common to all, as to assay type: in vivo
The test system of test [1] is Blattella germanica strain PAULINIA
Nature of the test: Blattella germanica test (BLTTGE surface treatment & contact assay). The note with it: exposure 30 minutes, 24 hours after contact, read-out: efficacy (mortality); for mortality at 20 mg/m2: surface concentration 20 mg/m^2, glazed tile; for mortality at 4 mg/m2: surface concentration 4 mg/m^2, glazed tile. On the procedure: Blattella germanica Test (BLTTGE Surface Treatment & Contact Assay) Solvent: Aceton+2000 ppm rapeseed oil methyl ester (RME)
In order to produce a sufficient, active ingredient containing solution it is necessary to solve the test compound in the solvent-mix (acetone at 2 mg/ml/RME 2000 ppm). This solution is pipetted onto a glazed tile and after evaporation of the acetone, adult animals of the species Blattella germanica strain […] are placed onto the dried surface. The exposure time is 30 minutes. Mortality in percent (%) is determined 24 hours after contact of the insects to the treated surface. 100% mortality means that all tested insects are dead, whereas 0% means that no insect died.

The subject of a further test is Tetranychus urticae. Nature of the test: Tetranychus urticae spray test, OP-resistant. To be noted: foliar, 144 h, application rate 100 g/ha, French bean leaf disks, after 6 days. On the procedure:
Tetranychus urticae—Spray Test OP-Resistant Solvent: 78.0 parts by weight acetone • 1.5 parts by weight dimethylformamide Emulsifier: alkylarylpolyglycol ether
(§1) To produce a suitable preparation of active compound, 1 part by weight of active compound is mixed with the stated amount of solvents and is diluted with water, containing an emulsifier concentration of 1000 ppm, to the desired concentration. Further test concentrations are prepared by dilution with emulsifier containing water.
French bean (Phaseolus vulgaris) leaf disks infected with all instars of the two spotted spidermite (Tetranychus urticae), are sprayed with a preparation of the active ingredient of the desired concentration.
After 6 days mortality in % is determined. 100% means all spider mites have been killed and 0% means none of the spider mites have been killed.

The test system of a further test is Nilaparvata lugens. Nature of the test: Nilaparvata lugens spray test. To be noted: 96 h, rice plants, after 4 days; for mortality at 500 g/ha: application rate 500 g/ha; for mortality at 100 g/ha: application rate 100 g/ha. On the procedure: Nilaparvata lugens—Spray Test Solvent: 78.0 parts by weight of acetone • • 1.5 parts by weight of dimethylformamide Emulsifier: alkylarylpolyglycol ether
as §1
Rice plants (Oryza sativa) are sprayed with a preparation of the active ingredient of the desired concentration and the plants are infested with the brown planthopper (Nilaparvata lugens).
After 4 days mortality in % is determined. 100% means all planthoppers have been killed and 0% means none of the planthoppers have been killed.

`C[C@H](NC(=O)c1cc(Br)cc(C(F)F)c1)c1ncnn1-c1ccc(C#N)cn1` [II-83]: the mortality at 20 mg/m2 in test [1] lay within 80 to 100%.
For `C[C@H](NC(=O)c1cc(Cl)cc(C(F)F)c1)c1ncnn1-c1ccc(C#N)cn1` [II-12], in the test with Tetranychus urticae, the mortality at 100 g/ha is 90%.
As to `C[C@H](NC(=O)c1ccnc(C(F)(F)F)n1)c1ncnn1-c1ccc(C#N)cn1` [II-8], the mortality at 500 g/ha with Nilaparvata lugens is 100%.
For the compound `C[C@H](NC(=O)c1cc(OC(F)F)cc(C(F)F)c1)c1ncnn1-c1ccc(C#N)cn1` [II-116], in test [1], the mortality at 4 mg/m2 was in the range of 80 to 100% and the mortality at 20 mg/m2 was in the range of 80 to 100%.
For the compound `C[C@H](NC(=O)c1cc(OC(F)F)cc(OC(F)F)c1)c1ncnn1-c1ccc(C#N)cn1` [II-77], the mortality at 20 mg/m2 in test [1] was 80 to 100%.
As for `Cc1nc([C@H](C)NC(=O)c2cc(C(F)(F)F)cc(C(F)(F)F)c2)n(-c2ccc(C(=O)N(C)CC#N)cn2)n1` [II-99], the mortality at 100 g/ha in the test with Tetranychus urticae and in the test on Nilaparvata lugens was 90% each time.
Regarding `C[C@H](NC(=O)c1cc(C(F)(F)F)cc(C(F)(F)F)c1)c1ncnn1-c1ccc(C(=O)N(C)C2CC2)cn1` [II-38, 6-(5-{(1S)-1-[3,5-bis(trifluoromethyl)benzamido]ethyl}-1H-1,2,4-triazol-1-yl)-N-cyclopropyl-N-methylnicotinamide], the mortality at 100 g/ha in the test on Tetranychus urticae turned out to be 90%.
The compound `C[C@H](NC(=O)c1cc(C(F)(F)F)cc(C(F)(F)F)c1)c1ncnn1-c1ccc(C(=O)N(C)CC2CC2)cn1` [II-73] registered a mortality at 500 g/ha in the test on Nilaparvata lugens of 100%.
The same measure, in the same setting: as for `C[C@H](NC(=O)c1cc(Cl)cc(C(F)(F)F)c1)c1ncnn1-c1cc(-n2cncn2)ccn1` [II-43], the figure is 90%.
With `C[C@H](NC(=O)c1cc(OC(F)(F)F)cc(C(F)F)c1)c1ncnn1-c1ccc(C#N)cn1` [II-111], in test [1], the mortality at 4 mg/m2 is 80 to 100% and the mortality at 20 mg/m2 lay in the range of 80 to 100%.
As for `Cc1nc([C@H](C)NC(=O)c2cc(C(F)(F)F)cc(C(F)(F)F)c2)n(-c2ccc(C(=O)N(C)C3CC3)cn2)n1` [II-96], the mortality at 100 g/ha in the test on Nilaparvata lugens is 90%.
For `C[C@H](NC(=O)c1cc(C(F)F)cc(C(F)F)c1)c1ncnn1-c1ccc(C#N)cn1` [II-101], the mortality at 20 mg/m2 in test [1] lay within 80 to 100%.

The values are drawn from US20220274947A1, “NOVEL HETEROARYL-TRIAZOLE COMPOUNDS AS PESTICIDES” (Bayer Aktiengesellschaft, priority 2019, published 2022).
